From patent publication US20180133190A1, “MONOACYLGLYCEROLS AND FAT-SOLUBLE NUTRIENTS FOR USE IN THE TREATMENT OF NUTRIENT DEFICIENCY FROM MALDIGESTION” (NESTEC S.A., priority 2013, published 2018)

What was measured:
[1] = lipid maldigestion or malabsorption rat model (XENICAL-induced): EPA level in red blood cell lipids; assay type: in vivo, rats
Protocol: The concept was tested in a lipid maldigestion or malabsorption rat model. The maldigestion or malabsorption condition was obtained using XENICAL® (ORLISTAT), a pancreatic and gastric lipases inhibitor (tetrahydrolipstatin; see FIG. 7). Rats were fed during 21 days with long-chain polyunsaturated fatty acid (LC-PUFA) supplements containing mainly eicosapentaenoic (EPA) acid. Fish oil was used as a source of triacylglycerols, and different EPA glycerides were evaluated. XENICAL® (ORLISTAT) was given at a level sufficient to decrease lipid absorption by 40%. A group receiving fish oil without XENICAL® (ORLISTAT) was used as a positive control. At different time intervals (D3, D7, […]), the fatty acid profiles of red blood cell and plasma lipids were determined. At the end of the experiment, the fatty acid profiles of different tissues were determined. The main objective was to follow the level of EPA in red blood cell and plasma lipids. The main comparison evaluated was the difference in EPA level between the group receiving EPA-containing sn-1(3) MAG in combination with XENICAL® (ORLISTAT) and the positive control group (fish oil+XENICAL® (ORLISTAT)). […] This comparison corroborates the validity of the model.

[2] = clinical study: delivery of EPA under lipid maldigestion conditions induced by XENICAL (ORLISTAT); assay type: in vivo, humans
Protocol: This clinical study compared the efficacy of sn-1(3) MAG and fish oil (TAG) in delivering EPA in humans under lipid maldigestion conditions induced by XENICAL® (ORLISTAT). The comparison was tested in volunteers having a BMI of 37-40 kg/m2 and treated with XENICAL® (ORLISTAT) to induce lipid maldigestion or not treated with XENICAL® (ORLISTAT). The primary objective was to assess accretion of EPA in erythrocytes over 21 days when consumed as fish oil (TAG) or sn-1(3) MAG. The secondary objectives were to assess accretion of EPA in plasma over 21 days and also to assess the pharmacokinetics of EPA after an acute dose either in the form of sn-1(3) MAG or TAG (AUC in chylomicrons over 10 hours postprandial).

Row | SMILES | EPA incorporation in red blood cells, effect of lipase inhibitor ([1]; rats fed fish oil with vs without XENICAL (ORLISTAT), day 7, FIG. 2) | chronic effect: accretion of EPA in erythrocytes after 21 days ([2]; humans, with XENICAL (ORLISTAT), in comparison to fish oil and XENICAL, p=0.0001, FIG. 5) | chronic effect: accretion of EPA in plasma after 21 days ([2]; humans, with XENICAL (ORLISTAT), relative to fish oil and XENICAL, p=0.0003, FIG. 6) | carrier for EPA compared with fish oil (TAG) ([2]; obese subjects treated with XENICAL (ORLISTAT)) | incorporation of LC-PUFAs in tissue ([1]; rats, conditions of lipid maldigestion or malabsorption) | level of EPA incorporated in red blood cells vs fish oil group (without XENICAL) ([1]; rats, with XENICAL (ORLISTAT), day 7, FIG. 2) | level of EPA incorporated in red blood cells vs fish oil + XENICAL (ORLISTAT) group ([1]; rats, with XENICAL (ORLISTAT), day 7, all P values lower than 0.05, FIG. 2)
1 | CCCCCCCCCCC[C@@H](C[C@@H]1OC(=O)[C@H]1CCCCCC)OC(=O)[C@H](CC(C)C)NC=O [XENICAL® (ORLISTAT), tetrahydrolipstatin, reference compound] | decreases EPA incorporation in red blood cells |  |  |  |  |  | 
2 | CC/C=C\C/C=C\C/C=C\C/C=C\C/C=C\CCCC(=O)OCC(O)CO (stereo not shown) [sn-1(3) MAG that contained EPA, sn-1(3)-monoeicosapentaenoylglycerol] |  | statistically significant | statistically significant | better carrier for EPA than fish oil (TAG) | the incorporation in tissue is improved | even higher than the fish oil group | statistically higher
